From ChEMBL document CHEMBL1201862, “PubChem BioAssay data set” (2004)
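Test compounds were applied to cells in 96-well plates for 48 hours at 5 doses. GI50: concentration for 50% inhibition of growth.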 Calls of active or inactive are those of the source. Cut-off read from the data, not from the text of the source: active = GI50 up to about 1.1 µM and inactive = higher.

Legend:
Test in all cases: DTP human tumour cell line panel, 48 h
786-0 = test system: 786-0
A549 = test system: A549
ACHN = test system: ACHN
CAKI-1 = test system: CAKI-1
COLO 205 = test system: COLO 205
HT-29 = test system: HT-29
IGROV-1 = test system: IGROV-1
MOLT-4 = test system: MOLT-4
OVCAR-5 = test system: OVCAR-5
RPMI-8226 = test system: RPMI-8226
SK-MEL-2 = test system: SK-MEL-2
SN12C = test system: SN12C
TK-10 = test system: TK-10
UO-31 = test system: UO-31
SK-MEL-28 = test system: SK-MEL-28
OVCAR-3 = test system: OVCAR-3

Row | SMILES | GI50 (786-0) | GI50 (A549) | GI50 (ACHN) | GI50 (CAKI-1) | GI50 (COLO 205) | GI50 (HT-29) | GI50 (IGROV-1) | GI50 (MOLT-4) | GI50 (OVCAR-5) | GI50 (RPMI-8226) | GI50 (SK-MEL-2) | GI50 (SN12C) | GI50 (TK-10) | GI50 (UO-31) | GI50 (SK-MEL-28) | GI50 (OVCAR-3)
1 | CC1OC(n2cc(F)c(=O)[nH]c2=O)CCC1=O (configuration not stated) | > 100 µM (inactive) | 46.7 µM (inactive) | > 100 µM (inactive) | > 100 µM (inactive) | 79.4 µM (inactive) | 91 µM (inactive) | > 100 µM (inactive) | > 100 µM (inactive) | > 100 µM (inactive) | 49.7 µM (inactive) | > 100 µM (inactive) | > 100 µM (inactive) | > 100 µM (inactive) | 71.8 µM (inactive) |  | 
2 | CN(C)C(=Nc1nc(N(C)C)s[s+]1)N(C)C | > 100 µM (inactive) | > 100 µM (inactive) | > 100 µM (inactive) | > 100 µM (inactive) |  | > 100 µM (inactive) | > 100 µM (inactive) | > 100 µM (inactive) | > 100 µM (inactive) | > 100 µM (inactive) | > 100 µM (inactive) | > 100 µM (inactive) | > 100 µM (inactive) | > 100 µM (inactive) | > 100 µM (inactive) | 
3 | CCCCOP1(=O)C=C(C)C(=C(Cl)Cl)C(C)=C1 (configuration not stated) | 12.5 µM (inactive) | 6.58 µM (inactive) | 6.43 µM (inactive) | 5.83 µM (inactive) | 5.25 µM (inactive) | 4.33 µM (inactive) | 14.8 µM (inactive) | 3.02 µM (inactive) | 45.1 µM (inactive) | 2.74 µM (inactive) | 1.98 µM (inactive) | 7.31 µM (inactive) | 11.2 µM (inactive) | 19.5 µM (inactive) | 8.17 µM (inactive) | 17.9 µM (inactive)
4 | CC1(C)COC2(OC1)C1=NS(=O)(=O)CC13CCC2C3(C)C (configuration not stated) | > 100 µM (inactive) | > 100 µM (inactive) | > 100 µM (inactive) | > 100 µM (inactive) | > 100 µM (inactive) | > 100 µM (inactive) | > 100 µM (inactive) | > 100 µM (inactive) | > 100 µM (inactive) | > 100 µM (inactive) | > 100 µM (inactive) | > 100 µM (inactive) | > 100 µM (inactive) | > 100 µM (inactive) | > 100 µM (inactive) | > 100 µM (inactive)
5 | CCCCCCCCCCCCNC1(C)CNCCCNCCNCCCNC1 | 1.75 µM (inactive) | 1.76 µM (inactive) | 1.78 µM (inactive) | 1.87 µM (inactive) | 1.74 µM (inactive) | 1.58 µM (inactive) | 1.07 µM (active) | 1.43 µM (inactive) | 2.23 µM (inactive) | 1.63 µM (inactive) | 1.9 µM (inactive) | 1.67 µM (inactive) | 1.7 µM (inactive) | 2.29 µM (inactive) | 1.87 µM (inactive) | 1.82 µM (inactive)
6 | CCOc1ccc(NC(=O)CC2Sc3ccccc3NC2=O)cc1 (configuration not stated) | 19.2 µM (inactive) | > 100 µM (inactive) | 49.8 µM (inactive) | 89.9 µM (inactive) | 41.1 µM (inactive) | 85.5 µM (inactive) | > 100 µM (inactive) | > 100 µM (inactive) | > 100 µM (inactive) | 65.5 µM (inactive) |  | > 100 µM (inactive) | 60.5 µM (inactive) | 47.2 µM (inactive) | > 100 µM (inactive) | 42.3 µM (inactive)
7 | OC1(C23CC4CC(CC(C4)C2)C3)CSCC1(O)C12CC3CC(CC(C3)C1)C2 (configuration not stated) | > 100 µM (inactive) | > 100 µM (inactive) |  | > 100 µM (inactive) | > 100 µM (inactive) | > 100 µM (inactive) | > 100 µM (inactive) | > 10 µM (inactive) |  | > 100 µM (inactive) | > 100 µM (inactive) | > 100 µM (inactive) | > 100 µM (inactive) | > 100 µM (inactive) | > 100 µM (inactive) | > 100 µM (inactive)
8 | COC(=O)/C(=C/CC(N=C(c1ccccc1)c1ccccc1)C(=O)OC)N=C(c1ccccc1)c1ccccc1 (configuration not stated) | > 100 µM (inactive) | > 100 µM (inactive) | > 100 µM (inactive) | > 100 µM (inactive) | > 100 µM (inactive) | > 100 µM (inactive) | > 100 µM (inactive) | > 100 µM (inactive) |  | 79.3 µM (inactive) | > 100 µM (inactive) | > 100 µM (inactive) | > 100 µM (inactive) | 45.9 µM (inactive) | > 100 µM (inactive) | > 100 µM (inactive)
9 | Cn1nc2ccccc2cc1=O | > 100 µM (inactive) | > 100 µM (inactive) | > 100 µM (inactive) | > 100 µM (inactive) | > 100 µM (inactive) | > 100 µM (inactive) | > 100 µM (inactive) |  | > 100 µM (inactive) | > 100 µM (inactive) | > 100 µM (inactive) | > 100 µM (inactive) | > 100 µM (inactive) | > 100 µM (inactive) | > 100 µM (inactive) | > 100 µM (inactive)
10 | CCOC(=O)c1cc(/C=C/C(C)=C/C(=O)OC)oc1-c1ccccc1 | > 100 µM (inactive) | 49.8 µM (inactive) | 71.8 µM (inactive) | 55.8 µM (inactive) | > 100 µM (inactive) | > 100 µM (inactive) | 66.7 µM (inactive) | 38.6 µM (inactive) | > 100 µM (inactive) | 31.6 µM (inactive) | > 100 µM (inactive) | 73.8 µM (inactive) | > 100 µM (inactive) | 35.4 µM (inactive) |  | 73.5 µM (inactive)
11 | COc1ccc(/C(=N/NC(N)=O)C(c2ccc(OC)cc2)C2C(=O)Oc3ccccc32)cc1 (configuration not stated) | > 100 µM (inactive) | > 100 µM (inactive) |  | > 100 µM (inactive) | > 100 µM (inactive) | > 100 µM (inactive) | > 100 µM (inactive) | > 100 µM (inactive) | > 100 µM (inactive) | > 100 µM (inactive) |  | > 100 µM (inactive) |  | 35 µM (inactive) | > 100 µM (inactive) | > 100 µM (inactive)
12 | N#CC1=C(c2ccccc2)NN(Cc2ccccc2)C(c2ccc(Cl)cc2)CC1=O (configuration not stated) | 24.3 µM (inactive) | 18.2 µM (inactive) | 23.3 µM (inactive) | 30.1 µM (inactive) | 36.1 µM (inactive) | 17.3 µM (inactive) |  | 4.91 µM (inactive) | 34 µM (inactive) | 18.8 µM (inactive) | 25.8 µM (inactive) |  | 42.8 µM (inactive) |  | 39.8 µM (inactive) | 
13 | CC(=O)Nc1ccc(-c2nnc(SCC(=O)Nc3ccc(Cl)cc3Cl)o2)cc1 | 16.1 µM (inactive) | > 100 µM (inactive) | 44.6 µM (inactive) | > 100 µM (inactive) | 28.6 µM (inactive) | 31.8 µM (inactive) | 37.1 µM (inactive) | 40.8 µM (inactive) | > 100 µM (inactive) |  | > 100 µM (inactive) | 20.2 µM (inactive) | 96.8 µM (inactive) | 94.8 µM (inactive) | > 100 µM (inactive) | 18.6 µM (inactive)
14 | CC#CC1C(OC(=O)c2ccccc2)CCCC1(CI)N=[N+]=[N-] (configuration not stated) | > 100 µM (inactive) | 58.6 µM (inactive) | > 100 µM (inactive) | > 100 µM (inactive) | > 100 µM (inactive) | 40.6 µM (inactive) | > 100 µM (inactive) | 13.6 µM (inactive) | > 100 µM (inactive) | 18.5 µM (inactive) | 75 µM (inactive) | > 100 µM (inactive) | > 100 µM (inactive) | 56.5 µM (inactive) |  | > 100 µM (inactive)
15 | COC(OC)c1cc2c(cc1C(=O)[C@@]13CCC[C@@H]1NC(=O)O3)OCO2 | > 100 µM (inactive) |  | > 100 µM (inactive) | > 100 µM (inactive) |  | > 100 µM (inactive) | 73.5 µM (inactive) | > 100 µM (inactive) | > 100 µM (inactive) |  | > 100 µM (inactive) | > 100 µM (inactive) | > 100 µM (inactive) | 60.3 µM (inactive) | > 100 µM (inactive) | > 100 µM (inactive)
16 | Cc1ccc2[nH]c3c(C)c4c(c(C)c3c2c1)CN(C)C=C4 | 0.325 µM (active) | 0.37 µM (active) | 6.55 µM (inactive) |  | 0.285 µM (active) | 2.46 µM (inactive) | 0.698 µM (active) | 1.91 µM (inactive) | 3.1 µM (inactive) | 5.35 µM (inactive) | 1.72 µM (inactive) | 0.186 µM (active) | 9.29 µM (inactive) | 3.52 µM (inactive) | 1.98 µM (inactive) | 2.75 µM (inactive)
17 | CC1(C)CCC[C@@]2(C)C1CC[C@H]1CC(O)C3(C)CCC12C3 (some centres not stated) | 17.5 µM (inactive) | 18.7 µM (inactive) | 17.9 µM (inactive) | 16.6 µM (inactive) |  | 18.2 µM (inactive) | 22.2 µM (inactive) | 22 µM (inactive) | 18.2 µM (inactive) | 25.8 µM (inactive) |  | 16.9 µM (inactive) | 14.4 µM (inactive) | 17.5 µM (inactive) | 18.4 µM (inactive) | 16.7 µM (inactive)
18 | O=C1NCCS(=O)(=O)N[C@@H](CC2=CC=CCC2)C(=O)N2CCCC12 (some centres not stated) | > 100 µM (inactive) | > 100 µM (inactive) | > 100 µM (inactive) |  | > 100 µM (inactive) | > 100 µM (inactive) | > 100 µM (inactive) | > 100 µM (inactive) | > 100 µM (inactive) | > 100 µM (inactive) | > 100 µM (inactive) | > 100 µM (inactive) | > 100 µM (inactive) | > 100 µM (inactive) | > 100 µM (inactive) | > 100 µM (inactive)
19 | O=C(O)CC[C@H](NC(=O)c1ccc(-n2nc3ccc(=O)cc-3[nH]c2=O)cc1)C(=O)O | > 100 µM (inactive) | > 100 µM (inactive) | > 100 µM (inactive) |  | > 100 µM (inactive) | > 100 µM (inactive) | > 100 µM (inactive) | > 100 µM (inactive) | > 100 µM (inactive) | > 100 µM (inactive) | > 100 µM (inactive) | > 100 µM (inactive) | > 100 µM (inactive) | > 100 µM (inactive) | > 100 µM (inactive) | > 100 µM (inactive)
